Consider 22 compounds from PubChem BioAssay AID330 (DTP/NCI, 2004).

This assay deals with P388 leukemia ip, CD2F1 mice, survival T/C. The experiment in a line: NCI In Vivo Anticancer Drug Screen. Data for tumor model P388 Leukemia (intraperitoneal) in CD2F1 (CDF1) mice. The conditions noted are these: endpoint: median survival time, higher = longer survival. The essentials: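 Mice carrying the transplanted tumor received test compound or vehicle. Survival was recorded in each group, and the value is the treated-group measurement divided by that of the vehicle-treated control group.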

[1] abbreviates: dose: 50.0 mg/kg/injection, schedule: Q01DX005 (ip), vehicle: saline with Tween-80.
Where [2] appears, read: dose: 100.0 mg/kg/injection, schedule: Q01DX005 (ip), vehicle: saline with Tween-80.
[3] abbreviates: dose: 200.0 mg/kg/injection, schedule: Q01DX005 (ip), vehicle: saline with Tween-80.
[4] abbreviates: dose: 50.0 mg/kg/injection, schedule: Q01DX009 (ip), vehicle: saline with Tween-80.
Where [5] appears, read: dose: 100.0 mg/kg/injection, schedule: Q01DX009 (ip), vehicle: saline with Tween-80.
Setting [6] is: dose: 100.0 mg/kg/injection, schedule: Q04DX003 (ip), vehicle: saline with Tween-80.
Setting [7] is: dose: 200.0 mg/kg/injection, schedule: Q01DX009 (ip), vehicle: saline with Tween-80.
[8] abbreviates: dose: 200.0 mg/kg/injection, schedule: Q04DX003 (ip), vehicle: saline with Tween-80.
[9] abbreviates: dose: 50.0 mg/kg/injection, schedule: Q01DX005 (ip), vehicle: saline.
[10] abbreviates: dose: 100.0 mg/kg/injection, schedule: Q01DX005 (ip), vehicle: saline.
The mark [11] stands for this setting: dose: 200.0 mg/kg/injection, schedule: Q01DX005 (ip), vehicle: saline.
Where [12] appears, read: dose: 400.0 mg/kg/injection, schedule: Q01DX009 (ip), vehicle: saline with Tween-80.
Where [13] appears, read: dose: 400.0 mg/kg/injection, schedule: Q04DX003 (ip), vehicle: saline with Tween-80.
[14] abbreviates: dose: 100.0 mg/kg/injection, schedule: Q01DX001 (ip), vehicle: Klucel (hydroxypropylcellulose) (HPC).
[15] abbreviates: dose: 200.0 mg/kg/injection, schedule: Q01DX001 (ip), vehicle: Klucel (hydroxypropylcellulose) (HPC).
Setting [16] is: dose: 400.0 mg/kg/injection, schedule: Q01DX001 (ip), vehicle: Klucel (hydroxypropylcellulose) (HPC).
The mark [17] stands for this setting: dose: 100.0 mg/kg/injection, schedule: Q01DX009 (ip), vehicle: saline.
The mark [18] stands for this setting: dose: 200.0 mg/kg/injection, schedule: Q01DX009 (ip), vehicle: saline.

“And” between values parts separate entries of the source, which are not always exact repeats. Equal values may be shown once. Inconclusive results and toxic doses are left out.

On to `Oc1c(-c2ccccc2)nc2ccccn12`, for which the T/C is, setting by setting: (dose: 60.0 mg/kg/injection, schedule: Q01DX005 (ip), vehicle: Klucel (hydroxypropylcellulose) (HPC)) 94 % of control; (dose: 120.0 mg/kg/injection, schedule: Q01DX005 (ip), vehicle: Klucel (hydroxypropylcellulose) (HPC)) 96 % of control; (dose: 240.0 mg/kg/injection, schedule: Q01DX005 (ip), vehicle: Klucel (hydroxypropylcellulose) (HPC)) 107 % of control.

`Cc1c2cc(Cl)ccc2c(CSC(=N)N)c2ccc3ccccc3c12`: the T/C runs as follows: (dose: 50.0 mg/kg/injection, schedule: Q04DX002 (ip), vehicle: Klucel (hydroxypropylcellulose) (HPC)) 100 % of control; (dose: 100.0 mg/kg/injection, schedule: Q04DX002 (ip), vehicle: Klucel (hydroxypropylcellulose) (HPC)) 102 % of control; (dose: 200.0 mg/kg/injection, schedule: Q04DX002 (ip), vehicle: Klucel (hydroxypropylcellulose) (HPC)) 107 % of control.

Consider `CCN(CC)c1ncnc2c1nnn2C`, for which the T/C was 101 % of control under setting [1], 100 % of control under setting [2] and 107 % of control under setting [3].

As for `CC(CCC(=O)O)(c1ccc(O)cc1)c1ccc(O)cc1`, the T/C is 95 % of control (dose: 100.0 mg/kg/injection, schedule: Q04DX003 (ip), vehicle: other); 95 % of control (dose: 200.0 mg/kg/injection, schedule: Q04DX003 (ip), vehicle: other); 90 % of control (dose: 400.0 mg/kg/injection, schedule: Q04DX003 (ip), vehicle: other).

`O=C1NC(=O)C2=C1CCCC2Br` (configuration not stated): the T/C was 99 % of control (dose: 3.13 mg/kg/injection, schedule: Q01DX009 (ip), vehicle: distilled water + Tween-80); 92 % of control (dose: 6.25 mg/kg/injection, schedule: Q01DX009 (ip), vehicle: distilled water + Tween-80); 117 % of control (dose: 12.5 mg/kg/injection, schedule: Q01DX009 (ip), vehicle: distilled water + Tween-80).

`Nc1ccc(S(=O)(=O)c2ccc(NCC(=O)O)cc2)cc1`: the T/C was 100 % of control under setting [4]; 100 % of control (dose: 50.0 mg/kg/injection, schedule: Q04DX003 (ip), vehicle: saline with Tween-80); 95 % of control under setting [5]; 100 % of control under setting [6]; 86 % of control under setting [7]; 100 % of control under setting [8].

Turning to `NC(=N\N=C\C(O)C(O)C(O)C(O)C(=O)O)/C(N)=N/N=C/C(O)C(O)C(O)C(O)C(=O)O` (configuration not stated), the T/C is 101 % of control under setting [9], 104 % of control under setting [10] and 101 % of control under setting [11].

Regarding `O=C1c2cc(O)c(O)cc2O[C@H](c2ccc(O)c(O)c2)[C@H]1O`, the T/C under setting [5] was 120 % of control; the T/C under setting [6] is 100 % of control; the T/C under setting [7] was 110 % of control; the T/C under setting [8] was 100 % of control; the T/C under setting [12] was 120 % of control; the T/C under setting [13] is 109 % of control.

`CCCCCCCCCCCCCCCCCC(N)=S`: the T/C (dose: 12.5 mg/kg/injection, schedule: Q01DX005 (ip), vehicle: Klucel + Tween-80) was 95 % of control; the T/C (dose: 25.0 mg/kg/injection, schedule: Q01DX005 (ip), vehicle: Klucel + Tween-80) is 95 % of control; the T/C (dose: 50.0 mg/kg/injection, schedule: Q01DX005 (ip), vehicle: Klucel + Tween-80) was 86 % of control and 94 % of control; the T/C (dose: 200.0 mg/kg/injection, schedule: Q01DX005 (ip), vehicle: Klucel + Tween-80) is 87 % of control.

As for `O=C1CSC(c2cccc(F)c2)N1CCN1C(=O)CSC1c1cccc(F)c1` (configuration not stated), the T/C is 95 % of control under setting [1], 98 % of control under setting [2] and 106 % of control under setting [3].

As to `Cc1ccc2c(c1Oc1ccc(S(N)(=O)=O)cc1)C(=O)c1ccccc1C2=O`, the T/C runs as follows: under setting [6], 100 % of control; under setting [8], 100 % of control; under setting [13], 95 % of control.

Regarding `NC1CC(=O)N(Cc2ccccc2)C1=O` (configuration not stated), the T/C is, setting by setting: under setting [9], 97 % of control; under setting [10], 91 % of control; under setting [11], 93 % of control.

For the compound `NC(=S)N/N=C/c1c(Br)n(-c2ccccc2)c2ccccc12`, the T/C is 94 % of control under setting [14], 98 % of control under setting [15] and 91 % of control under setting [16].

Regarding `O=S1(=O)C=C(c2ccccc2)S(=O)(=O)C=C1c1ccccc1`, the T/C is 102 % of control under setting [6] and 96 % of control under setting [8].

For the compound `CCCCCCCCCCOC(=O)c1ccccc1`, the T/C (dose: 50.0 mg/kg/injection, schedule: Q01DX009 (ip), vehicle: Klucel (hydroxypropylcellulose) (HPC)) is 98 % of control; the T/C (dose: 100.0 mg/kg/injection, schedule: Q01DX009 (ip), vehicle: Klucel (hydroxypropylcellulose) (HPC)) was 93 % of control; the T/C (dose: 200.0 mg/kg/injection, schedule: Q01DX009 (ip), vehicle: Klucel (hydroxypropylcellulose) (HPC)) was 98 % of control.

Regarding `N#CCCSc1ccccc1N=Cc1ccccc1O`, the T/C is, setting by setting: (dose: 50.0 mg/kg/injection, schedule: Q01DX009 (ip), vehicle: saline) 101 % of control; under setting [17], 99 % of control; under setting [18], 95 % of control.

For the compound `Cc1cc(=O)[nH]c2c3sc4ccccc4c(=O)c3c3ccccc3c12`, the T/C by setting is: (dose: 12.5 mg/kg/injection, schedule: Q04DX003 (ip), vehicle: Klucel (hydroxypropylcellulose) (HPC)) 99 % of control; (dose: 25.0 mg/kg/injection, schedule: Q04DX003 (ip), vehicle: Klucel (hydroxypropylcellulose) (HPC)) 99 % of control; (dose: 50.0 mg/kg/injection, schedule: Q04DX003 (ip), vehicle: Klucel (hydroxypropylcellulose) (HPC)) 95 % of control; (dose: 100.0 mg/kg/injection, schedule: Q04DX003 (ip), vehicle: Klucel (hydroxypropylcellulose) (HPC)) 98 % of control.

`CCSSC1(C)C(=O)N2CCCC2C(=O)N1C` (configuration not stated): the T/C runs as follows: (dose: 25.0 mg/kg/injection, schedule: Q04DX003 (ip), vehicle: saline) 109 % of control; (dose: 50.0 mg/kg/injection, schedule: Q04DX003 (ip), vehicle: saline) 103 % of control; (dose: 100.0 mg/kg/injection, schedule: Q04DX003 (ip), vehicle: saline) 104 % of control.

Take `CCOC1OCN(c2ccccc2)CC1(C)C` (configuration not stated): the T/C under setting [4] is 115 % of control, the T/C under setting [5] is 114 % of control, the T/C under setting [7] was 108 % of control and the T/C under setting [12] is 117 % of control.

As to `Cn1c(=O)c2nc(-c3ccccn3)cnc2n(C)c1=O`, the T/C runs as follows: (dose: 25.0 mg/kg/injection, schedule: Q01DX001 (ip), vehicle: Klucel (hydroxypropylcellulose) (HPC)) 116 % of control; (dose: 50.0 mg/kg/injection, schedule: Q01DX001 (ip), vehicle: Klucel (hydroxypropylcellulose) (HPC)) 106 % of control; under setting [14], 100 % of control and 122 % of control and 92 % of control; under setting [15], 95 % of control (2×) and 96 % of control; under setting [16], 94 % of control and 95 % of control.

`C1OC1CO[C@@H]1CO[C@H]2[C@@H]1OC[C@H]2OCC1CO1` (some centres not stated): the T/C is, setting by setting: (dose: 12.5 mg/kg/injection, schedule: Q01DX009 (ip), vehicle: saline) 120 % of control; under setting [17], 194 % of control; (dose: 100.0 mg/kg/injection, schedule: Q01DX009 (ip), vehicle: suspension in saline) 163 % of control; under setting [18], 192 % of control; under setting [12], 213 % of control; (dose: 400.0 mg/kg/injection, schedule: Q01DX009 (ip), vehicle: saline) 94 % of control. The T/C by setting is: (dose: 400.0 mg/kg/injection, schedule: Q01DX009 (ip), vehicle: suspension in saline) 100 % of control; under setting [13], 186 % of control; (dose: 600.0 mg/kg/injection, schedule: Q04DX003 (ip), vehicle: saline with Tween-80) 200 % of control.

In the case of `Cc1ccc(NS(=O)(=O)c2ccc(Cl)cc2)cc1Cl`, the T/C is 104 % of control under setting [5], 98 % of control under setting [7] and 100 % of control under setting [12].
